According to patent US12303490B2, “Compositions and methods for suppressing and/or treating neurodegenerative diseases and/or a clinical condition thereof” (CK Regeon Inc., priority 2019, dated 2025):
Blank lines part the entries; values can stand above or below the compound they belong to.

Columns and labels:
CXXC5-DVL interaction = experiment: In vitro CXXC5-DVL PPI inhibition (binding) assay, library screening; details: compound 30 μM; FITC-tagged PTD-DBMP and DVL-PDZ domain; fluorescence intensity
Experimental: Screening for compounds that inhibit the CXXC5-DVL interaction. […] CELL. DEATH. DIFFER. […] Briefly, 5 mg/ml purified DVL-PDZ domain was incubated in each well of a 96-well Maxibinding Immunoplate (SPL, Seoul, Korea) at 4° C. for 16 h. After the addition of 10 μM FITC-tagged PTD-DBMP to each well, each compound in the chemical library or control (DMSO) was treated to the well at a final concentration of 30 μM. The fluorescence intensity was measured using a Fluorstar Optima microplate reader (BGM Lab Technologie, Ortenberg, Germany) and normalized as follows: “(‘compounds-treated group’−‘blank’)/(‘DMSO-treated control’−‘blank’)*100”.

Wnt/β-catenin pathway = experiment: pTOPFlash reporter assay in HEK293 cells; details: HEK293 cells harboring the pTOPFlash reporter
[1] = test system: β-catenin, CXXC5 and p-GSK3β (S9) in H4/SWE cells; experiment: Western blot assay in H4/SWE cells; assay type: cell-based; details: FIG. 9A
Experimental: Western blot assay. H4 and H4/SWE Cells were ground with a mortar and pestle before lysis in RIPA buffer (150 mM NaCl, 10 mM Tris, pH 7.2, 0.1% SDS, 1.0% Triton X-100, 1% sodium deoxycholate, and 5 mM EDTA). Samples were separated on 6-12% SDS polyacrylamide gels and transferred onto PROTRAN nitrocellulose membranes (Schleicher and Schuell Co.). The membranes were blocked with PBS containing 5% non-fat dry skim milk and 0.07% (vol/vol) Tween 20 and incubated with antibody specific for β-catenin (1:1,000, Santa Cruz Biotechnology, Inc.), CXXC5 (1:500, Santa Cruz Biotechnology, Inc.), p-GSK3β(S9) (1:500, Santa Cruz Biotechnology, Inc.). The membranes were then incubated with horseradish peroxidase-conjugated anti-rabbit (1:5,000, Bio-Rad Laboratories) or anti-mouse (1:5000, Cell Signaling Technology) IgG secondary antibody. Protein bands were visualized with enhanced chemiluminescence (GE Healthcare) using a luminescent image analyzer, LAS-3000 (Fujifilm). Western blot bands were analyzed using Multi-Gauge V3.0 software (Fujifilm).

[2] = test system: rat neuronal stem cells (NSCs); experiment: Neural stem cell (NSC) differentiation, cell morphology; assay type: cell-based; details: 0, 1, 5 and 10 μM; 24 hours; medium with bFGF
Experimental: Neural stem cell (NSCs) culture. NSCs were extracted from the forebrain of E14.5 rats and maintained in an undifferentiated state by culturing in medium containing 10 ng/ml of bFGF (Peprotech). Undifferentiated NSCs (1×10^5) were treated with of each compound (10 μM) and cell morphology was assessed by capturing black and white images of the cells after 24 h.
Referring now to FIG. 7A-7B, NSCs were isolated form E14 mice embryos, and maintained in the maintenance medium (supplemented) with bFGF and EGF. The neuronal differentiation was induced by treating different concentrations of A3051. Cell morphologies were captured at 24 hours after treatment of the indirubin analog 3051 using a bright-field optical microscope.

[3] = test system: secreted human amyloid β-42 in H4/SWE cells; experiment: Human Aβ42 ELISA assay in H4/SWE cells; assay type: cell-based; details: 24 h, FIG. 10
Experimental: Human Aβ42 ELISA assay. H4 or H4/SWE cells were cultured in Dulbecco's Modified Eagle's Medium (DMEM, Gibco) containing 10% fetal bovine serum (FBS) and grown to confluence in a 5% CO2 and 95% air humidified atmosphere. The cells were seeded in 6-well plate in DMEM supplemented with 10% FBS and allowed to adhere overnight. The cells were treated with each compound (1˜20 uM) for 24 h and collected in 1 ml of medium. The samples were treated with protease inhibitor cocktail (PIC) to avoid the degradation of Amyloid β by protease and centrifuged at 3000 rpm for 3 min. Experiments were performed according to the guidance of Human Aβ42 ELISA Kit protocol (Invitrogen). The amount of secreted Amyloid β was normalized by measuring total protein concentration.

[4] = test system: β-catenin in H4/SWE cells; experiment: Immunocytochemical analysis of β-catenin in H4/SWE cells; assay type: cell-based; details: FIG. 9B
Experimental: Immunocytochemical analysis. H4 or H4/SWE cells treated with each compound were washed with PBS and fixed in 4% (wt/vol) paraformaldehyde (PFA) in PBS for 15 min at room temperature. The cells were then washed with PBS and permeabilized with 0.1% (vol/vol) Triton X-100 in PBS for 15 min. After washing with PBS, the cells were incubated with 10% bovine serum albumin (BSA) in PBS for 30 min and then with antibodies specific for β-catenin (1:100; BD) overnight at 4° C. The cells were washed in PBS and incubated with Alexa Fluor 488—conjugated IgG secondary antibody (1:400; Molecular Probes) at room temperature for 1 h. Cell nuclei were counterstained with DAPI for 10 min and the stained samples were examined under a LSM510 META microscope.

serum active GLP-1 [5] = experiment: Serum active GLP-1 in NASH mouse models (STZ-induced, MCD-induced); assay type: in vivo, mice; details: FIG. 6A-6B
Experimental: FIG. 6A. Graph illustrating the serum active GLP-1 levels in NCD-mice (“Chow”) and RFD-fed, STZ-induced NASH mice that were treated with vehicle, A3334, A3051, selonsertib, and ocaliva.
FIG. 6B. Graph illustrating the serum active GLP-1 levels in NCD-mice (“Chow”) and RFD-fed, methionine-choline deficient diet (MCD)-induced NASH mice that were treated with vehicle, A3334, A3051, selonsertib, ocaliva (“OCA”), and A3486.
(§1) Blood chemistry. Total blood of mice was collected by cardiac puncture. The blood was allowed to clot for 30 min and was then centrifuged for 30 min at 3,000×g to obtain supernatant to measure active GLP-1 concentration. ELISA assay kits were used to assess serum active GLP-1 (7-36).

serum active GLP-1 [6] = experiment: Serum active GLP-1 ELISA in HFD-fed, STZ-induced diabetes mice; assay type: in vivo
Experimental: as §1
(§2) Animals. The generation of Cxxc5^−/− mice has been described previously. Cxxc5 heterozygous mice were intercrossed for four generations to obtain littermate wild-type and Cxxc5^−/− mice and were maintained on a C57BL/6 background. Six-week-old Cxxc5^+/+ and Cxxc5^−/− mice were fed HFD for 8 weeks. Wild-type male C57BL/6 mice (KOATECH, Seoul, Korea) were fed HFD consisting of 60% calories from fat (Research Diet, D12492) for 8 weeks. To validate that the insulin resistance mouse model was successfully established, fasting glucose levels were assessed with a One Touch Ultra glucometer (LifeScan). Subsequently, each HFD-fed mouse with a fasting glucose level higher than 16.7 mmol/L was orally administered A3334 (25 mg kg^−1), sitagliptin (50 mg kg^−1), or metformin (100 mg kg^−1) each day for 5 days at weeks 8 and 12. After the removal of the drugs, mice were maintained for 3 weeks on the HFD. To monitor pancreas regeneration, six-week-old Cxxc5^+/+ and Cxxc5^−/− mice were fed an HFD as above. […]

serum active GLP-1 [7] = experiment: Serum active GLP-1 ELISA in HFD-mice; assay type: in vivo; details: compared with mice fed on NCD, FIG. 4A
Experimental: as §1, §2

[8] = test system: GLP-1 and other Wnt/β-catenin signaling target genes (Tcf712, Axin2, Dvl1, Wisp1, Fosl1); experiment: qPCR of GLP-1 and other Wnt/β-catenin signaling target genes in epiWAT of HFD-mice; assay type: in vivo; details: phenotypes as observed in HFD-fed Cxxc5−/− mice, FIG. 2C
Experimental: Quantitative real-time polymerase chain reaction (PCR). Total RNA was extracted from ground tissue powder using TRIzol reagent (Invitrogen) according to the manufacturer's instructions. Reverse transcription was performed with M-MLV reverse transcriptase (Invitrogen) using 2 μg of total RNA. Synthesized cDNA was diluted to a concentration of 100 ng/μl. Quantitative PCR analyses were performed in the Rotor-gene Q real-time PCR cycler (Qiagen) using SYBR green reagent (Qiagen) with conditions of 95° C. for 10 min followed by 40 cycles at 95° C. for 5 s and 60° C. for 15 s. Relative quantification of mRNA levels was estimated using the comparative Ct method (ΔΔCt). Glp-1 mRNA values were normalized with respect to GAPDH.
Animals. The generation of Cxxc5^−/− mice has been described previously. Cxxc5 heterozygous mice were intercrossed for four generations to obtain littermate wild-type and Cxxc5^−/− mice and were maintained on a C57BL/6 background. Six-week-old Cxxc5^+/+ and Cxxc5^−/− mice were fed HFD for 8 weeks. Wild-type male C57BL/6 mice (KOATECH, Seoul, Korea) were fed HFD consisting of 60% calories from fat (Research Diet, D12492) for 8 weeks. To validate that the insulin resistance mouse model was successfully established, fasting glucose levels were assessed with a One Touch Ultra glucometer (LifeScan). […]

Structure (SMILES): O=C(O)C1Sc2[nH]c(=O)sc2C2c3cc(Br)cc(Br)c3OC(=O)C12 (stereo not shown) [Compound 5]
- CXXC5-DVL inhibitory activity (%) (CXXC5-DVL interaction): 90.48%

Structure (SMILES): CCN(CC)S(=O)(=O)c1ccc(OC)c(Nc2cc(-c3ccccc3)nc(C)n2)c1 [Compound 6]
- CXXC5-DVL inhibitory activity (%) (CXXC5-DVL interaction): 58.24%

Structure (SMILES): O=C1Nc2cc(Br)ccc2/C1=C1/Nc2ccccc2/C1=N\O [Compound 8, 6-Bromoindirubin-3′-oxime, reference compound]
- activation of Wnt/β-catenin pathway (reporter assay) (Wnt/β-catenin pathway): showed effectiveness
- level of β-catenin (western blot) [1]: restored
- p-GSK3β (S9) (western blot) [1]: increased

Structure (SMILES): Br.CN1CCc2cc(O)cc3c2[C@H]1Cc1ccc(O)c(O)c1-3 [Compound 9]
- CXXC5-DVL inhibitory activity (%) (CXXC5-DVL interaction): 89.41%

Structure (SMILES): NC(Cc1cc(O)c(O)cc1O)C(=O)O (stereo not shown) [Compound 10]
- CXXC5-DVL inhibitory activity (%) (CXXC5-DVL interaction): 90.32%

Structure (SMILES): O=C1Nc2ccccc2/C1=C1/Nc2ccccc2/C1=N\O [Compound 12, Indirubin-3′-oxime, reference compound]
- activation of Wnt/β-catenin pathway (reporter assay) (Wnt/β-catenin pathway): showed effectiveness
- CXXC5-DVL inhibitory activity (%) (CXXC5-DVL interaction): 89%
- level of β-catenin (western blot) [1]: restored
- p-GSK3β (S9) (western blot) [1]: increased

Structure (SMILES): CN(C)c1ccc(O)c2c1C[C@H]1C[C@H]3[C@H](N(C)C)C(O)=C(C(N)=O)C(=O)[C@@]3(O)C(O)=C1C2=O.Cl [Compound 16]
- CXXC5-DVL inhibitory activity (%) (CXXC5-DVL interaction): 87.9%

Structure (SMILES): Cl.O=C(OCCN1CCOCC1)C1(c2ccccc2)CCCCC1 [Compound 18]
- CXXC5-DVL inhibitory activity (%) (CXXC5-DVL interaction): 86.81%

Structure (SMILES): O=C1Nc2ccccc2/C1=C1/Nc2ccccc2C1=O [Indirubin, reference compound]
- level of β-catenin (western blot) [1]: restored
- p-GSK3β (S9) (western blot) [1]: increased

Structure (SMILES): Cc1cc(F)c(C(=O)Nc2cccc(-c3nncn3C(C)C)n2)cc1-n1cnc(C2CC2)c1 [selonsertib, reference compound]
- active GLP-1 expression in blood serum (serum active GLP-1 [5]): did not have any effect

Structure (SMILES): N[C@@H](CC(=O)N1CCn2c(nnc2C(F)(F)F)C1)Cc1cc(F)c(F)cc1F [sitagliptin, reference compound]
- relative expression levels of GLP-1 and other Wnt/β-catenin signaling target genes in epiWAT [8]: did not

More lines, main results first:

- CXXC5-DVL inhibitory activity (%) (CXXC5-DVL interaction): 90.63%
Structure (SMILES): COc1ccc(C2CC(C(F)(F)F)n3ncc(C(=O)O)c3N2)cc1OC (stereo not shown) [Compound 2]

- CXXC5-DVL inhibitory activity (%) (CXXC5-DVL interaction): 88.19%
Structure (SMILES): Cc1cc(C)c2c(O)nc(SCC(=O)c3ccc(O)c(O)c3)nc2n1 [Compound 3]

- CXXC5-DVL inhibitory activity (%) (CXXC5-DVL interaction): 87.58%
Structure (SMILES): COC(=O)C1=C(C)N/C(=C/c2cc(C)n(-c3ccccc3F)c2C)C1=O [Compound 4]

- CXXC5-DVL inhibitory activity (%) (CXXC5-DVL interaction): 90.87%
Structure (SMILES): COc1ccc(C2CC(=O)C3=C(C2)Nc2onc(C)c2C3c2ccc(O)c(O)c2)cc1OC (stereo not shown) [Compound 7]

- CXXC5-DVL inhibitory activity (%) (CXXC5-DVL interaction): 90.05%
Structure (SMILES): O=c1cc(O)cc(/C=C/c2ccc(O)c(O)c2)o1 [Compound 11]

- CXXC5-DVL inhibitory activity (%) (CXXC5-DVL interaction): 85.22%
Structure (SMILES): O=c1c(O)c(-c2cc(O)c(O)c(O)c2)oc2cc(O)cc(O)c12 [Compound 13]

- CXXC5-DVL inhibitory activity (%) (CXXC5-DVL interaction): 85.22%
Structure (SMILES): CC(N)(Cc1ccc(O)c(O)c1)C(=O)O (stereo not shown) [Compound 14]

- CXXC5-DVL inhibitory activity (%) (CXXC5-DVL interaction): 85.41%
Structure (SMILES): O=c1c(O)c(-c2ccc(O)cc2O)oc2cc(O)cc(O)c12 [Compound 15]

- CXXC5-DVL inhibitory activity (%) (CXXC5-DVL interaction): 85.25%
Structure (SMILES): Oc1cc(O)cc(/C=C/c2ccc(O)c(O)c2)c1 [Compound 17]

- p-GSK3β (S9) (western blot) [1]: increased
Structure (SMILES): CO/N=C1/C(=C2/C(=O)Nc3cc(Cl)c(Cl)cc32)Nc2ccccc21 [Compound A3051, 5,6-dichloroindirubin-3′-methoxime]
- neural differentiation of NSCs (cell morphology) [2]: induced neural differentiation
- level of CXXC5 (western blot) [1]: decreased
- level of β-catenin (western blot) [1]: restored
- secretion of Aβ-42 [3]: inhibited
- nuclear translocation of β-catenin [4]: increased
- active GLP-1 expression in blood serum (serum active GLP-1 [5]): significantly rescued (increased)

- p-GSK3β (S9) (western blot) [1]: increased
Structure (SMILES): COc1ccc2c(c1)/C(=C1/Nc3ccccc3/C1=N\O)C(=O)N2 [Compound A3334, 5-Methoxyindirubin-3′-oxime]
- serum active GLP-1 levels (serum active GLP-1 [6]; STZ-induced diabetic HFD-mice, compared with mice fed on NCD, FIG. 4B): restored
- active GLP-1 expression in blood serum compared to the sitagliptin treatment (serum active GLP-1 [6]; compared to the effect of sitagliptin (positive control)): significantly rescued (increased)
- serum active GLP-1 levels (serum active GLP-1 [7]): restored
- relative expression levels of GLP-1 and other Wnt/β-catenin signaling target genes in epiWAT [8]: restored the phenotypes
- level of CXXC5 (western blot) [1]: decreased
- level of β-catenin (western blot) [1]: restored
- secretion of Aβ-42 [3]: inhibited
- nuclear translocation of β-catenin [4]: increased
- active GLP-1 expression in blood serum (serum active GLP-1 [5]): significantly rescued (increased)
